Reference: patent US20250234861A1, “LACTONES FOR ENHANCING THE ACTIVITY OF ANTIMICROBIAL AGENTS” (BASF SE, priority 2021, published 2025)

Tests used:
Format in all cases: cell-based
[1] = test system: bacterial mix consisting of Escherichia coli DSM 1576, Alcaligenes faecalis DSM 13644, Pseudomonas aeruginosa ATCC 15442, Staphylococcus aureus ATCC 6538 …; test: Example 2.3: preservative activity of a basic composition (pH 7, 10% PG) using 1,2-benzisothiazol-3(2H)-one (BIT), bacterial challenge; conditions: day 7
Experimental: An aqueous composition of pH 7 comprising 10% by weight of propyleneglycol (PG) as organic solvent, 0.004% by weight of 1,2-benzisothiazol-3(2H)-one (BIT) as antimicrobial and the lactone listed in the below table was tested for its preserving activity against bacterial contamination (the weight percentages relate to the total weight of the composition). For this purpose, the samples were contaminated with a bacterial mix consisting of: • Escherichia coli DSM 1576 • Alcaligenes faecalis DSM 13644 • Pseudomonas aeruginosa ATCC 15442 • Staphylococcus aureus ATCC 6538 • Burkholderia cepacia DSM 7288 • Pseudomonas putida DSM 12735
The samples were inoculated with the bacterial mix at day 0 to obtain 10E+06 to 10E+07 CFU/ml inoculation in the test sample and stored at 25° C. for 7 days.
(§1) CFU was determined at day 7.
Any CFU value at day 7 (d7) obtained with a sample according to the invention containing BIT and lactone (10% PG+0.004% BIT+x % of Lactone) that is lower than the respective value of the “comparative 2” example (10% PG+0.004% BIT) indicates a better performance.

[2] = test system: bacterial mix consisting of Escherichia coli DSM 1576, Alcaligenes faecalis DSM 13644, Pseudomonas aeruginosa ATCC 15442, Staphylococcus aureus ATCC 6538 …; test: Example 2.1: preservative activity in a manual dishwashing composition (MDW, pH 7.1) using 2-phenoxyethanol (PE), bacterial challenge; conditions: for d7 CFU: day 7; for d14 CFU: day 14; for d21 CFU: day 21
Experimental: (§2) A manual dish wash detergent (MWD) of pH 7.1 containing the following components was used:
The samples were contaminated with a bacterial mix consisting of: • Escherichia coli DSM 1576 • Alcaligenes faecalis DSM 13644 • Pseudomonas aeruginosa ATCC 15442 • Staphylococcus aureus ATCC 6538 • Burkholderia cepacia DSM 7288 • Pseudomonas putida DSM 12735
The samples were inoculated with the bacterial mix at day 0 and 7 to obtain 10E+06 to 10E+07 CFU/ml inoculation in the test sample and stored at 25° C. for 21 days. CFU was determined before re-inoculation at day 7 and on days 14 and 21.
Any CFU value at day 7 (d7), day 14 (d14) or day 21 (d21) obtained with a sample according to the invention containing 2-phenoxyethanol and lactone (MDW+1.0% PE+x % Lactone) lower than the respective value of the “comparative 2” example (MDW+1.0% by weight of 2-Phenoxyethanol) indicates a better performance.

[3] = test system: fungal mix consisting of Aspergillus brasiliensis DSM 1988, Rhodotorula mucilaginosa DSM 13621, Yarrowialipolytica DSM 8218; test: Example 1.2: preservative activity in a manual dishwashing composition (MDW, pH 7.1) using 2-phenoxyethanol (PE), fungal challenge; conditions: for d7 CFU: day 7; for d14 CFU: day 14; for d21 CFU: day 21
Experimental: as §2
(§3) The samples were contaminated with a fungal mix consisting of: • Aspergillus brasiliensis DSM 1988 • Rhodotorula mucilaginosa DSM 13621 • Yarrowialipolytica DSM 8218
(§4) The samples were inoculated with the fungal mix at day 0 and 7 to obtain 1-3×10E+05 CFU/ml inoculation in the test sample consisting of the above-defined dish wash detergent MDW and stored at 25° C. for 21 days. CFU was determined before re-inoculation at day 7, and on days 14 and 21.
(§5) Any CFU value at d7, d14 or d21 obtained with a MDW sample of the invention containing 2-phenoxyethanol and lactone (MDW+1.0% PE+x % of Lactone) lower than the respective value of the “comparative 2” example (MDW+1.0% by weight of 2-Phenoxyethanol) indicates a better performance of the inventive combination of 2-phenoxyethanol with the lactone.

[4] = test system: fungal mix consisting of Aspergillus brasiliensis DSM 1988, Rhodotorula mucilaginosa DSM 13621, Yarrowialipolytica DSM 8218; test: Example 1.3: preservative activity in a manual dishwashing composition (MDW, pH 7.1) using 2-phenoxyethanol (PE), fungal challenge; conditions: for d7 CFU: day 7; for d14 CFU: day 14; for d21 CFU: day 21
Experimental: as §2, §3, §4, §5

[5] = test system: Pseudomonas aeruginosa ATCC 15442; test: Example 2.4: preservative activity of a basic composition (pH 5, 10% PG) using sodium benzoate, bacterial challenge; conditions: day 7
Experimental: An aqueous composition of pH 5 comprising 10% by weight of propyleneglycol (PG) as organic solvent, sodium benzoate as antimicrobial and 0.18% by weight of γ-valerolactone was tested for its preserving activity against bacterial contamination (the weight percentages relate to the total weight of the composition). For this purpose, the samples were contaminated with a bacterial suspension of Pseudomonas aeruginosa ATCC 15442.
The samples were inoculated with the bacterial suspension at day 0 to obtain 6.1×10E+07 CFU/ml inoculation in the test sample and stored at 25° C. for 7 days.
as §1
Any CFU value at day 7 (d7) obtained with a sample according to the invention containing sodium benzoate and lactone (10% PG+x % sodium benzoate+0.18% of Lactone) lower than the respective value of the “comparative 2” example (10% PG+0.5% sodium benzoate) or “comparative 3” example (10% PG+0.85% sodium benzoate) indicates a better performance.

[6] = MDW pH 7.1 + 1.0% of the substance alone (comparative), bacterial mix inoculated day 0 and 7, 25° C.
[7] = MDW pH 7.1 + 1.0% of the substance alone (comparative), bacterial mix
[8] = MDW pH 7.1 + 1.0% of the substance alone (comparative), fungal mix inoculated day 0 and 7, 25° C.
[9] = MDW pH 7.1 + 1.0% of the substance alone (comparative), fungal mix
[10] = MDW + 1.0% PE + 1% of lactone, bacterial mix
[11] = MDW + 1.0% PE + 1% of lactone, fungal mix
[12] = MDW + 1.0% PE + 2% of lactone, fungal mix

O=c1[nH]sc2ccccc12 [BIT, 1,2-benzisothiazol-3(2H)-one, reference compound]
d7 [CFU/ml] ([1]; 10% PG, pH 7 + 0.004% BIT alone (Comparative 2)): >100,000 CFU/ml

OCCOc1ccccc1 [Phenoxyethanol (PE)]
d7 CFU [2, 6]: 625 CFU
d14 CFU [2, 7]: >100,000 CFU
d21 CFU [2, 7]: >100,000 CFU
d7 CFU [3, 8]: 34,500 CFU
d14 CFU [3, 8]: 16,500 CFU
d21 CFU [3, 8]: 3,800 CFU
d7 CFU [4, 8]: >100,000 CFU
d14 CFU [4, 9]: >100,000 CFU
d21 CFU [4, 9]: >100,000 CFU

CCCCCC1CCC(=O)O1 (centres unmarked) [Y-Nonalactone]
d7 CFU [2, 6]: 8,400 CFU
d14 CFU [2, 7]: >100,000 CFU
d21 CFU [2, 7]: >100,000 CFU

O=C([O-])c1ccccc1.[Na+] [sodium benzoate, reference compound]
d7 [CFU/ml] ([5]; 10% PG, pH 5 + 0.5% sodium benzoate alone (Comparative 2)): >100,000 CFU/ml
d7 [CFU/ml] ([5]; 10% PG, pH 5 + 0.85% sodium benzoate alone (Comparative 3)): >100,000 CFU/ml

CCCCCCC1CCC(=O)O1 (centres unmarked) [y-Decalactone]
d7 CFU [2, 10]: <10 CFU
d14 CFU [2, 10]: <10 CFU
d21 CFU [2, 10]: <10 CFU
d7 CFU [2, 6]: >100,000 CFU
d14 CFU [2, 7]: >100,000 CFU
d21 CFU [2, 7]: >100,000 CFU

CCCCCC1CCC(=O)O1 (centres unmarked) [y-Nonalactone]
d7 CFU [2, 10]: <10 CFU
d14 CFU [2, 10]: <10 CFU
d21 CFU [2, 10]: <10 CFU

CCCCCCC1CCC(=O)O1 (centres unmarked) [γ-Decalactone]
d7 CFU [4, 11]: 24,500 CFU
d14 CFU [4, 11]: 13,000 CFU
d21 CFU [4, 11]: 1200 CFU
d7 CFU [4, 8]: >100,000 CFU
d14 CFU [4, 9]: >100,000 CFU
d21 CFU [4, 9]: >100,000 CFU

CCCCCC1CCC(=O)O1 (centres unmarked) [γ-nonalactone]
d7 CFU [4, 11]: 4,100 CFU
d14 CFU [4, 11]: 5,000 CFU
d21 CFU [4, 11]: 150 CFU
d7 CFU [4, 8]: >100,000 CFU
d14 CFU [4, 9]: >100,000 CFU
d21 CFU [4, 9]: >100,000 CFU

CC1CCC(=O)O1 (centres unmarked) [γ-valerolactone]
d7 [CFU/ml] ([5]; 10% PG + 0.5% sodium benzoate + 0.18% of lactone): 990 CFU/ml
d7 [CFU/ml] ([5]; 10% PG + 0.85% sodium benzoate + 0.18% of lactone): 890 CFU/ml
d7 [CFU/ml] ([5]; 10% PG, pH 5 + 0.18% lactone alone (Comparative 1), P. aeruginosa, 25° C.): >100,000 CFU/ml
d7 CFU [3, 11]: 3,500 CFU
d14 CFU [3, 11]: 3,600 CFU
d21 CFU [3, 11]: 385 CFU
d7 CFU [3, 12]: 85 CFU
d14 CFU [3, 12]: 95 CFU
d21 CFU [3, 12]: <10 CFU
d7 CFU [3, 8]: 12,000 CFU
d14 CFU [3, 8]: 24,500 CFU
d21 CFU [3, 8]: 2,500 CFU
d7 [CFU/ml] ([1]; 10% PG + 0.004% BIT + 0.04% of lactone): 145 CFU/ml
d7 [CFU/ml] ([1]; 10% PG, pH 7 + 0.04% lactone alone (Comparative 1), 25° C.): >100,000 CFU/ml
